Laboratory results: patent publication US20210386367A1, “DEVICES AND SYSTEMS FOR GASTROINTESTINAL MICROBIOME DETECTION AND MANIPULATION” (Progenity, Inc., priority 2018, published 2021)
Values after ≈ are worked out from the molar mass of the structure shown.

Key:
[1] = test system: Enterococcus faecalis clinical isolates; assay: MIC distribution against clinical isolates; type: cell-based; conditions: 50 E. faecalis isolates
Excerpt: (§1) As used herein, “minimum inhibitory concentration” or “MIC” refers to the lowest concentration of an antimicrobial agent, for example, an antimicrobial agent as described herein, required to inhibit the growth of an organism.
(§2) Many susceptibility testing methods are known in the art and can be used as described herein (see, e.g., Jorgensen and Ferraro (2009) Clinical Infectious Diseases 49:1749-1755; and Maurer et al. (2017) Infectious Disease Reports 9:6839; the entire contents of each of the foregoing are incorporated herein by reference). For example, antimicrobial susceptibility can be determined using conventional culture based methods such as the broth or agar dilution test. In these dilution tests, the bacterial isolate of interest is inoculated onto different media that include serial dilutions of an antimicrobial agent, and incubated under appropriate conditions (e.g., overnight at 37° C.) to allow for growth to occur. Following the incubation period, the media is examined to determine bacterial growth. The lowest concentration of antibiotic that prevents growth represents the minimal inhibitory concentration (MIC). Broth dilution tests can be miniaturized and mechanized allowing for reproducibility and high throughput.

[2] = test system: Staphylococcus aureus clinical isolates; assay: MIC distribution against clinical isolates; type: cell-based; conditions: 50 S. aureus isolates
Excerpt: as §1, §2

Enterococcus faecalis = assay: Broth microdilution MIC, 50 clinical isolates; type: cell-based
Procedure: (§3) Minimal inhibitory concentration (MIC) values were determined by broth microdilution or agar dilution in accordance with guidelines from the Clinical and Laboratory Standards Institute (CLSI; (1) “Methods for Dilution Antimicrobial Susceptibility Tests for Bacteria That Grow Aerobically; Approved Standard; 11th ed.” CLSI standard M07-A11, 2018; (2) “Performance Standards for Antimicrobial Susceptibility Testing; Twenty-Eighth Informational Supplement,” CLSI document M100-S28, 2018; and (3) “Methods for Antimicrobial Susceptibility Testing of Anaerobic Bacteria; Approved Standard—Eighth Edition,” CLSI document M11-A8, 2012).
(§4) Tested aerobically by broth microdilution: • Escherichia coli, n=50 • Klebsiella spp., n=50 • Pseudomonas aeruginosa, n=50 • Streptococcus spp., n=50 • Staphylococcus aureus, n=50 • Enterococcus faecalis, n=50 • Enterobacter aerogenes, n=50 • Proteus mirabilis, n=50
(§5) Broth microdilution testing of aerobic bacteria was conducted in cation-adjusted Mueller Hinton broth (MHBII). For testing streptococci, lysed horse blood (LHB) was added to MHBII broth at a final concentration of 3%. Where LHB was used, it was added after filtering.
(§6) Broth microdilution susceptibility testing in 96-well microplates was conducted in accordance with CLSI methods (1) and (2). Automated liquid handlers were used to conduct serial dilutions and liquid transfers, including the Multidrop 384 (Labsystems, Helsinki, Finland), Biomek 2000, and the Biomek FX (Beckman Coulter, Fullerton, Calif.). All wells in columns 2 through 12 of a standard 96-well microdilution plate (Costar 3795) were filled with 150 μL of the appropriate diluent. Then, 300 μL of the test agents were added to the wells of column 1 of the plates at 100× the highest final concentration to be tested. Serial two-fold dilutions were made across the rows through column 11 using the Biomek 2000. The wells of column 12 contained no drug and served as the growth control wells. This plate served as the “mother plate” from which MIC assay plates or “daughter plates” were made.
(§7) The daughter plates were loaded with 190 μL per well of the appropriate medium using the Multidrop 384. The daughter plates were created using the Biomek FX which transferred 2 μL of drug solution from each well of a mother plate to each corresponding well of the daughter plate in a single step. A standardized inoculum of each test organism was prepared per CLSI methods (1) to equal a 0.5 McFarland standard, followed by a dilution of 1:20 for aerobes and 1:10 for anaerobes. The plates were then inoculated with 10 μL of the diluted inoculum using the Biomek 2000 from low to high drug concentration, resulting in a final concentration of approximately 5×10^5 CFU/mL per well. An un-inoculated plate was incubated in parallel for each medium for the purpose of assessing solubility of the drug in the test media.
(§8) Inoculated plates were stacked 3 or 4 high, covered with a sterile lid on the top plate, placed into boxes with CO2 planchets (streptococci) or plastic bags (all other isolates). Plates were incubated at 35° C. for 16-24 hr in ambient air for aerobes or for 42-48 hr in the anaerobic environment of the Bactron II anaerobe chamber (Sheldon Manufacturing Co.; Cornelius, Oreg.). Following incubation, the microplates were removed from the incubator and viewed from the bottom using a plate viewer. The MIC values were read and recorded as the lowest concentration of drug that inhibited visible growth of the organism as per CLSI methods (1) and (2).

Staphylococcus aureus = assay: Broth microdilution MIC, 50 clinical isolates (28 MRSA); type: cell-based
Procedure: as §3, §4, §5, §6, §7, §8

[3] = test system: Streptococcus spp. spontaneous mutants; assay: organism not typed; type: cell-based
Procedure: (§9) Select isolates were subcultured onto agar containing drug at the selection concentration, were identified by MALDI, and were frozen for broth microdilution MIC testing as described below.
(§10) To determine whether colonies growing on drug selection plates had elevated MIC values to the selecting antibiotic, susceptibility testing by broth microdilution was conducted on isolated mutants following methodology recommended by CLSI (1), (2), and (3) “Performance Standards for Antimicrobial Susceptibility Testing; Twenty-Eighth Informational Supplement.,” CLSI document M100-S28, 2018.
(§11) All wells in columns 2 through 12 of a standard 96-well microdilution plate (Costar 3795) were filled with 150 μL of the appropriate diluent. Then, 300 μL of the test agents were added to the wells of column 1 of the plates at […] the highest final concentration to be tested. Serial two-fold dilutions were made across the rows through column 11 using the Biomek 2000. The wells of column 12 contained no drug and served as the growth control wells. This plate served as the “mother plate” from which selected MIC assay plates or “daughter plates” were made.
2 μL of drug solution from each well of a mother plate was added to each corresponding well of the daughter plate in a single step. A standardized inoculum of each aerobic test organism was prepared per CLSI methods to equal a 0.5 McFarland standard, followed by a dilution of 1:20 in MHB II. The plates were then inoculated with 10 μL of the diluted inoculum using the Biomek 2000 from low to high drug concentration, resulting in a final concentration of approximately 5×10^5 CFU/mL. An un-inoculated plate was incubated for the purpose of assessing solubility of the drug in the test media.
The plates for the aerobic tests were stacked 3-4 high, covered with a sterile lid on the top plate, and incubated aerobically at 35° C. for 18-20 hr. The MIC was recorded as the lowest concentration of drug that inhibited visible growth of the organism.

[4] = test system: Bacteroides spp. spontaneous mutants; assay: Broth microdilution MIC of spontaneous mutants; type: cell-based
Procedure: as §9, §10, §11
Daughter plates for anaerobic organisms were transferred to a Bactron II anaerobic chamber (Sheldon Manufacturing Inc., Cornelius, Oreg.) to reduce for 1 hour prior to inoculation. The inoculum for each organism was prepared in the anaerobic chamber and dispensed into sterile disposable reservoirs. Inoculation was completed using a multichannel pipette to transfer 10 μL of the inoculum into each well of the daughter plate. This yielded a final cell concentration in the daughter plates of approximately 1×10^6 CFU/mL.

[5] = test system: Streptococcus spp. spontaneous mutants; conditions: S. pneumoniae ATCC 49619; CLSI QC range shown in parentheses; cited from earlier work

SMILES: Cc1onc(-c2ccccc2)c1C(=O)N[C@@H]1C(=O)N2[C@@H]1SC(C)(C)[C@@H]2C(=O)O [oxacillin, Oxacillin]
- Cumulative percentage of isolates inhibited at MIC ([1]; MIC 2 μg/mL): 2.0%
- Number of test isolates at MIC ([1]; MIC 2 μg/mL): 1
- Cumulative percentage of isolates inhibited at MIC ([1]; MIC 8 μg/mL): 16.0%
- Number of test isolates at MIC ([1]; MIC 8 μg/mL): 7
- Cumulative percentage of isolates inhibited at MIC ([1]; MIC 16 μg/mL): 54.0%
- Number of test isolates at MIC ([1]; MIC 16 μg/mL): 19
- Cumulative percentage of isolates inhibited at MIC ([1]; MIC >16 μg/mL): 100.0%
- Number of test isolates at MIC ([1]; MIC >16 μg/mL): 23
- Cumulative percentage of isolates inhibited at MIC ([2]; MIC 0.5 μg/mL): 28.0%
- Number of test isolates at MIC ([2]; MIC 0.5 μg/mL): 10
- Cumulative percentage of isolates inhibited at MIC ([2]; MIC 1 μg/mL): 42.0%
- Number of test isolates at MIC ([2]; MIC 1 μg/mL): 7
- Cumulative percentage of isolates inhibited at MIC ([2]; MIC 2 μg/mL): 44.0%
- Number of test isolates at MIC ([2]; MIC 2 μg/mL): 1
- Cumulative percentage of isolates inhibited at MIC ([2]; MIC 4 μg/mL): 48.0%
- Number of test isolates at MIC ([2]; MIC 4 μg/mL): 2
- Cumulative percentage of isolates inhibited at MIC ([2]; MIC 8 μg/mL): 50.0%
- Number of test isolates at MIC ([2]; MIC 8 μg/mL): 1
- Cumulative percentage of isolates inhibited at MIC ([2]; MIC >16 μg/mL): 100.0%
- Number of test isolates at MIC ([2]; MIC >16 μg/mL): 25
- Cumulative percentage of isolates inhibited at MIC ([2]; MIC […]): 8.0%
- Number of test isolates at MIC ([2]; MIC […]): 4
- Mode (Enterococcus faecalis): >16 µg/mL
- MIC50 (Enterococcus faecalis; Enterococcus faecalis, read-out: MIC50): 16 µg/mL (≈ 39.9 µM)
- MIC90 (Enterococcus faecalis; Enterococcus faecalis, read-out: MIC90): > 16 µg/mL
- % R (Staphylococcus aureus): 56%
- % S (Staphylococcus aureus): 44%
- Mode (Staphylococcus aureus): >16 µg/mL
- MIC50 (Staphylococcus aureus; Staphylococcus aureus, read-out: MIC50): 8 µg/mL (≈ 19.9 µM)
- MIC90 (Staphylococcus aureus; Staphylococcus aureus, read-out: MIC90): > 16 µg/mL

SMILES: CCC[C@@H]1C[C@@H](C(=O)N[C@@H]([C@H]2O[C@H](SC)[C@H](O)[C@@H](O)[C@H]2O)[C@H](C)Cl)N(C)C1 [CLIN]
- MIC ([3]; S. agaloctiae ATCC 13813, selected on rifaximin 4X MIC, Colony A): 0.03 µg/mL (≈ 0.0706 µM)
- MIC ([3]; S. agaloctiae ATCC 13813, selected on rifaximin 4X MIC, Colony B): 0.03 µg/mL (≈ 0.0706 µM)
- MIC ([3]; S. agaloctiae ATCC 13813, selected on rifaximin 8X MIC, Colony A): 0.03 µg/mL (≈ 0.0706 µM)
- MIC ([3]; S. agaloctiae ATCC 13813, selected on rifaximin 8X MIC, Colony B): 0.03 µg/mL (≈ 0.0706 µM)
- MIC ([3]; S. agaloctiae ATCC 13813 Parent): 0.015 µg/mL (≈ 0.0353 µM)
- MIC ([3]; S. pneumoniae ATCC 49619, selected on rifaximin 4X MIC, Colony A): 0.03 µg/mL (≈ 0.0706 µM)
- MIC ([3]; S. pneumoniae ATCC 49619, selected on rifaximin 4X MIC, Colony B): 0.03 µg/mL (≈ 0.0706 µM)
- MIC ([3]; S. pneumoniae ATCC 49619, selected on rifaximin 8X MIC, Colony A): 0.03 µg/mL (≈ 0.0706 µM)
- MIC ([3]; S. pneumoniae ATCC 49619, selected on rifaximin 8X MIC, Colony B): 0.03 µg/mL (≈ 0.0706 µM)
- MIC ([3]; S. pneumoniae ATCC 49619 Parent): 0.06 µg/mL (≈ 0.141 µM)
- MIC ([3]; S. pyogenes ATCC 49399, selected on rifaximin 4X MIC, Colony A): 0.03 µg/mL (≈ 0.0706 µM)
- MIC ([3]; S. pyogenes ATCC 49399, selected on rifaximin 4X MIC, Colony B): 0.03 µg/mL (≈ 0.0706 µM)
- MIC ([3]; S. pyogenes ATCC 49399, selected on rifaximin 8X MIC, Colony A): 0.03 µg/mL (≈ 0.0706 µM)
- MIC ([3]; S. pyogenes ATCC 49399, selected on rifaximin 8X MIC, Colony B): 0.03 µg/mL (≈ 0.0706 µM)
- MIC ([3]; S. pyogenes ATCC 49399 Parent): 0.03 µg/mL (≈ 0.0706 µM)
- MIC ([4]; B. fragilis ATCC 25285, selected on rifaximin 4X MIC, Colony A): 0.5 µg/mL
- MIC ([4]; B. fragilis ATCC 25285, selected on rifaximin 4X MIC, Colony B): 0.5 µg/mL
- MIC ([4]; B. fragilis ATCC 25285, selected on rifaximin 8X MIC, Colony A): 0.5 µg/mL
- MIC ([4]; B. fragilis ATCC 25285, selected on rifaximin 8X MIC, Colony B): 0.5 µg/mL
- MIC ([4]; B. fragilis ATCC 25285 Parent): 0.25 µg/mL
- MIC ([4]; B. ovatus MMX 3503, selected on rifaximin 4X MIC, Colony A): 1 µg/mL
- MIC ([4]; B. ovatus MMX 3503, selected on rifaximin 4X MIC, Colony B): 1 µg/mL
- MIC ([4]; B. ovatus MMX 3503, selected on rifaximin 8X MIC, Colony A): 0.5 µg/mL
- MIC ([4]; B. ovatus MMX 3503, selected on rifaximin 8X MIC, Colony B): 1 µg/mL
- MIC ([4]; B. ovatus MMX 3503 Parent): 0.5 µg/mL
- MIC ([4]; B. vulgatus ATCC 8482, selected on ceftriaxone 4X MIC, Colony A): 0.25 µg/mL
- MIC ([4]; B. vulgatus ATCC 8482, selected on ceftriaxone 4X MIC, Colony B): 0.25 µg/mL
- MIC ([4]; B. vulgatus ATCC 8482, selected on rifaximin 4X MIC, Colony A): 0.25 µg/mL
- MIC ([4]; B. vulgatus ATCC 8482, selected on rifaximin 4X MIC, Colony B): 0.12 µg/mL
- MIC ([4]; B. vulgatus ATCC 8482, selected on rifaximin 8X MIC, Colony A): 0.12 µg/mL
- MIC ([4]; B. vulgatus ATCC 8482, selected on rifaximin 8X MIC, Colony B): 0.25 µg/mL
- MIC ([4]; B. vulgatus ATCC 8482 Parent (Table 50)): 0.25 µg/mL
- MIC ([4]; B. vulgatus ATCC 8482 Parent (Table 54)): 0.25 µg/mL
- MIC, CLSI QC range [5]: (0.03-0.12) μg/mL
